Measured values published in US10479786B2, “Protein kinase inhibitors” (Princeton Drug Discovery Inc, priority 2016, dated 2019).

Key:
Experiment in all cases: Off-chip Mobility Shift Assay, kinase inhibition
Type in all cases: biochemical
[1] = target: T1, CSK (Homo sapiens, UniProt P41240); conditions: at 10 nM; recombinant CSK
T1 construct: purchased Carna Biosciences, Inc

[2] = target: T2, KIT(D816V) (Homo sapiens, UniProt P10721, D816V); conditions: at 10 nM; recombinant KIT(D816V)
T2 construct: purchased Carna Biosciences, Inc

[3] = target: T3, KIT(D816Y) (Homo sapiens, UniProt P10721, D816Y); conditions: at 10 nM; recombinant KIT(D816Y)
T3 construct: purchased Carna Biosciences, Inc

[4] = target: T4, BRK (Homo sapiens, UniProt Q13882); conditions: at 10 nM; recombinant BRK
T4 construct: purchased Carna Biosciences, Inc

[5] = target: T5, PDGFRα(V561D) (Homo sapiens, UniProt P16234, V561D); conditions: at 10 nM; recombinant PDGFRα(V561D)
T5 construct: purchased Carna Biosciences, Inc
T5 sequence (P16234 24-1089 V561D): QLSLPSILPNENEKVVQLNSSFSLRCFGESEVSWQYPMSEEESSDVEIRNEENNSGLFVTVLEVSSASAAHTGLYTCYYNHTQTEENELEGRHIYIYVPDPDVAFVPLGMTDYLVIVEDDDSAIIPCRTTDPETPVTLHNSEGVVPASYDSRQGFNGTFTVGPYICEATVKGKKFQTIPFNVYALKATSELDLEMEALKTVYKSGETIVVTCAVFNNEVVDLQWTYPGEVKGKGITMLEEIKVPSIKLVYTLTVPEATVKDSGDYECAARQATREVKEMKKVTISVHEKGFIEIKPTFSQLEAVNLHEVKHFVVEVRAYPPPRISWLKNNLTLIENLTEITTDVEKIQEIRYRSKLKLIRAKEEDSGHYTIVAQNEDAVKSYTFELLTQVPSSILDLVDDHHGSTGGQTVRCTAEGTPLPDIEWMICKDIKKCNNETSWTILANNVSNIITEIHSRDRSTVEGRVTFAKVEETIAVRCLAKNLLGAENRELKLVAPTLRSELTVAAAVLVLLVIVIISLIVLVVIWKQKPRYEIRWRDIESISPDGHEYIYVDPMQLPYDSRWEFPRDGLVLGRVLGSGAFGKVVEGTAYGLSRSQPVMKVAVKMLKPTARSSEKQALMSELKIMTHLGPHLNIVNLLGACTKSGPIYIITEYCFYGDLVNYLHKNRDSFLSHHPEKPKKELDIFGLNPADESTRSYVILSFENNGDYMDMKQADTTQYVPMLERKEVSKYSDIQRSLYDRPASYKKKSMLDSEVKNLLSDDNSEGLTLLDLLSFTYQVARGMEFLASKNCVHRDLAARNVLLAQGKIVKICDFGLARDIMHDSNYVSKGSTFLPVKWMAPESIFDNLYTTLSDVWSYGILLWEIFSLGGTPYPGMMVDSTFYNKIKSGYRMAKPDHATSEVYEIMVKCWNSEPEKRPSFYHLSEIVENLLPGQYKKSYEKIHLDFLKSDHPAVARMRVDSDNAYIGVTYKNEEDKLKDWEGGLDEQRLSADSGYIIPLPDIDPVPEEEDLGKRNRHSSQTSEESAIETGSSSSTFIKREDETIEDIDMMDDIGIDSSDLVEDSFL

[6] = target: T6, DDR1 (Homo sapiens, UniProt Q08345); conditions: at 10 nM; recombinant DDR1
T6 construct: purchased Carna Biosciences, Inc

[7] = target: T7, HER4 (Homo sapiens, UniProt Q15303); conditions: at 10 nM; recombinant HER4
T7 construct: purchased Carna Biosciences, Inc
T7 sequence (Q15303 26-1308): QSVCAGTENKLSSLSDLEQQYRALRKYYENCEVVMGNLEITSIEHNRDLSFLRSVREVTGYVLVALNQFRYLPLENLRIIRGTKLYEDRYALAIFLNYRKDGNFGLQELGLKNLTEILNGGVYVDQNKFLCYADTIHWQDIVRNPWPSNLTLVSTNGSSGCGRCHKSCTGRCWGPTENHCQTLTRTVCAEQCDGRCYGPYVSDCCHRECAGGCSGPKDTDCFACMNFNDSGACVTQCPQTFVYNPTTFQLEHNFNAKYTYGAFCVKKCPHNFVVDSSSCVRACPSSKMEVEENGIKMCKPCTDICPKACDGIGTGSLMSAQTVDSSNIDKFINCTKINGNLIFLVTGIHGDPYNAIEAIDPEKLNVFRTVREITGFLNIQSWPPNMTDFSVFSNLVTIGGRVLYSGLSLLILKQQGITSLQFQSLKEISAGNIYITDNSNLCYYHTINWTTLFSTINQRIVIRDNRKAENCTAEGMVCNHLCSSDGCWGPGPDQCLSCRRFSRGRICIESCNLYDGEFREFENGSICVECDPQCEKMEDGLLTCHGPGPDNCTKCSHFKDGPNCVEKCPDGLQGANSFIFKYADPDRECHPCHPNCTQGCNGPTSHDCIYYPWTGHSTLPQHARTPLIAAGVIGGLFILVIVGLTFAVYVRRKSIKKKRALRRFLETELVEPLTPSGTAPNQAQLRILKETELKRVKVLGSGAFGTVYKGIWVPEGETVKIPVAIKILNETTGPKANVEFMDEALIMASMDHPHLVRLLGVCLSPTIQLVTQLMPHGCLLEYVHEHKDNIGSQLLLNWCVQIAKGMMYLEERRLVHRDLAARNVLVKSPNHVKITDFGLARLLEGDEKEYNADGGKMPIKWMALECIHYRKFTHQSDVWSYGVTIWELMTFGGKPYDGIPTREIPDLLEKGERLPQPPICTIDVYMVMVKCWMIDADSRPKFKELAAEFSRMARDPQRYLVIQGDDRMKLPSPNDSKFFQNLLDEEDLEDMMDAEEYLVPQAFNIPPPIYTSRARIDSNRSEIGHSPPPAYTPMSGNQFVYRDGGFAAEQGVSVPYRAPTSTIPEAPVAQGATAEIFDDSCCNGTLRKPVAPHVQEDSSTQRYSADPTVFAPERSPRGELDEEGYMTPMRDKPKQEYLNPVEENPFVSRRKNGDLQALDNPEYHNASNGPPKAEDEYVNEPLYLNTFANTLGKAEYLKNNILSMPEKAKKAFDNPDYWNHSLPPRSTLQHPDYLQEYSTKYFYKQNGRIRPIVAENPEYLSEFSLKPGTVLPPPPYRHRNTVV

[8] = target: T8, KIT(V654A) (Homo sapiens, UniProt P10721, V654A); conditions: at 10 nM; recombinant KIT(V654A)
T8 construct: purchased Carna Biosciences, Inc

[9] = target: T9, PDGFRα(D842V) (Homo sapiens, UniProt P16234, D842V); conditions: at 10 nM; recombinant PDGFRα(D842V)
T9 construct: purchased Carna Biosciences, Inc
T9 sequence (P16234 24-1089 D842V): as the sequence (P16234 24-1089 V561D) above, with D538V, D819V counted along it

[10] = target: T10, EGFR(L861Q) (Homo sapiens, UniProt P00533, L861Q); conditions: at 10 nM; recombinant EGFR(L861Q)
T10 construct: purchased Carna Biosciences, Inc

[11] = target: T11, EGFR(d746-750) (Homo sapiens, UniProt P00533, DEL746-750); conditions: at 10 nM; recombinant EGFR(d746-750)
T11 construct: purchased Carna Biosciences, Inc

[12] = target: T12, RET(S891A) (Homo sapiens, UniProt P07949, S891A); conditions: at 10 nM; recombinant RET(S891A)
T12 construct: purchased Carna Biosciences, Inc

[13] = target: T13, FGFR3 (Homo sapiens, UniProt P22607); conditions: at 10 nM; recombinant FGFR3
T13 construct: purchased Carna Biosciences, Inc

[14] = target: T14, RET(Y791F) (Homo sapiens, UniProt P07949, Y791F); conditions: at 10 nM; recombinant RET(Y791F)
T14 construct: purchased Carna Biosciences, Inc

[15] = target: T15, BRAF(V600E) (Homo sapiens, UniProt P15056, V600E); conditions: at 10 nM; recombinant BRAF(V600E)
T15 construct: purchased Carna Biosciences, Inc

[16] = target: T16, MAP2K2 (Homo sapiens, UniProt P36507); conditions: at 10 nM; recombinant MAP2K2
T16 construct: purchased Carna Biosciences, Inc
T16 sequence (P36507 whole entry): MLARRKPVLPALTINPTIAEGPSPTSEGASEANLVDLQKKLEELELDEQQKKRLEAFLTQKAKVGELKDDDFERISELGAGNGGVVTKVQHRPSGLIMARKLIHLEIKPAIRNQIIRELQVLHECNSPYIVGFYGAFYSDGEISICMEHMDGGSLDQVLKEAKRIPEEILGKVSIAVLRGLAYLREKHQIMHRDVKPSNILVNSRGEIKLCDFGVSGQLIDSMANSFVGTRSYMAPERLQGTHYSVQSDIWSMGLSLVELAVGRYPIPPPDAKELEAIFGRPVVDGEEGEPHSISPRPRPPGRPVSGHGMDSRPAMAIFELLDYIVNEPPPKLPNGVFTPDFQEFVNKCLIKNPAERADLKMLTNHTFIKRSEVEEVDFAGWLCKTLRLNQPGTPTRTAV

[17] = target: T17, RET(M918T) (Homo sapiens, UniProt P07949, M918T); conditions: at 10 nM; recombinant RET(M918T)
T17 construct: purchased Carna Biosciences, Inc

[18] = target: T18, FGFR2 (Homo sapiens, UniProt P21802); conditions: at 10 nM; recombinant FGFR2
T18 construct: purchased Carna Biosciences, Inc

[19] = target: T19, Erk1 (Homo sapiens, UniProt P27361); conditions: at 10 nM; recombinant Erk1
T19 construct: purchased Carna Biosciences, Inc

[20] = target: T20, PDGFRα(T674I) (Homo sapiens, UniProt P16234, T674I); conditions: at 10 nM; recombinant PDGFRα(T674I)
T20 construct: purchased Carna Biosciences, Inc
T20 sequence (P16234 24-1089 T674I): as the sequence (P16234 24-1089 V561D) above, with D538V, T651I counted along it

[21] = target: T21, JAK3 (Homo sapiens, UniProt P52333); conditions: at 10 nM; recombinant JAK3
T21 construct: purchased Carna Biosciences, Inc

[22] = target: T22, MAP2K1 (Homo sapiens, UniProt Q02750); conditions: at 10 nM; recombinant MAP2K1
T22 construct: purchased Carna Biosciences, Inc
T22 sequence (Q02750 whole entry): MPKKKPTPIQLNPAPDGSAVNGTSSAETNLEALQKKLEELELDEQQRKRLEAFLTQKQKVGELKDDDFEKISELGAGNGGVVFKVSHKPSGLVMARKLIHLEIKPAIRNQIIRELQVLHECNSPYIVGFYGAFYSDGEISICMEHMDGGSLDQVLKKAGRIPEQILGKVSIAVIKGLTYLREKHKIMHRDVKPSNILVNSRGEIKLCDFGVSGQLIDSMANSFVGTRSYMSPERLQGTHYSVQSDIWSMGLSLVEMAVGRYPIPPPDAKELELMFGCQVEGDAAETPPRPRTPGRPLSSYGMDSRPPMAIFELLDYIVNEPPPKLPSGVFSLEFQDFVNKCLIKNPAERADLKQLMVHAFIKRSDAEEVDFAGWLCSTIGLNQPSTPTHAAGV

[23] = target: T23, EGFR(T790M/L858R) (Homo sapiens, UniProt P00533, L858R/T790M); conditions: at 10 nM; recombinant EGFR(T790M/L858R)
T23 construct: purchased Carna Biosciences, Inc

[24] = target: T24, FLT1 (Homo sapiens, UniProt P17948); conditions: at 10 nM; recombinant FLT1
T24 construct: purchased Carna Biosciences, Inc
T24 sequence (P17948 27-1338): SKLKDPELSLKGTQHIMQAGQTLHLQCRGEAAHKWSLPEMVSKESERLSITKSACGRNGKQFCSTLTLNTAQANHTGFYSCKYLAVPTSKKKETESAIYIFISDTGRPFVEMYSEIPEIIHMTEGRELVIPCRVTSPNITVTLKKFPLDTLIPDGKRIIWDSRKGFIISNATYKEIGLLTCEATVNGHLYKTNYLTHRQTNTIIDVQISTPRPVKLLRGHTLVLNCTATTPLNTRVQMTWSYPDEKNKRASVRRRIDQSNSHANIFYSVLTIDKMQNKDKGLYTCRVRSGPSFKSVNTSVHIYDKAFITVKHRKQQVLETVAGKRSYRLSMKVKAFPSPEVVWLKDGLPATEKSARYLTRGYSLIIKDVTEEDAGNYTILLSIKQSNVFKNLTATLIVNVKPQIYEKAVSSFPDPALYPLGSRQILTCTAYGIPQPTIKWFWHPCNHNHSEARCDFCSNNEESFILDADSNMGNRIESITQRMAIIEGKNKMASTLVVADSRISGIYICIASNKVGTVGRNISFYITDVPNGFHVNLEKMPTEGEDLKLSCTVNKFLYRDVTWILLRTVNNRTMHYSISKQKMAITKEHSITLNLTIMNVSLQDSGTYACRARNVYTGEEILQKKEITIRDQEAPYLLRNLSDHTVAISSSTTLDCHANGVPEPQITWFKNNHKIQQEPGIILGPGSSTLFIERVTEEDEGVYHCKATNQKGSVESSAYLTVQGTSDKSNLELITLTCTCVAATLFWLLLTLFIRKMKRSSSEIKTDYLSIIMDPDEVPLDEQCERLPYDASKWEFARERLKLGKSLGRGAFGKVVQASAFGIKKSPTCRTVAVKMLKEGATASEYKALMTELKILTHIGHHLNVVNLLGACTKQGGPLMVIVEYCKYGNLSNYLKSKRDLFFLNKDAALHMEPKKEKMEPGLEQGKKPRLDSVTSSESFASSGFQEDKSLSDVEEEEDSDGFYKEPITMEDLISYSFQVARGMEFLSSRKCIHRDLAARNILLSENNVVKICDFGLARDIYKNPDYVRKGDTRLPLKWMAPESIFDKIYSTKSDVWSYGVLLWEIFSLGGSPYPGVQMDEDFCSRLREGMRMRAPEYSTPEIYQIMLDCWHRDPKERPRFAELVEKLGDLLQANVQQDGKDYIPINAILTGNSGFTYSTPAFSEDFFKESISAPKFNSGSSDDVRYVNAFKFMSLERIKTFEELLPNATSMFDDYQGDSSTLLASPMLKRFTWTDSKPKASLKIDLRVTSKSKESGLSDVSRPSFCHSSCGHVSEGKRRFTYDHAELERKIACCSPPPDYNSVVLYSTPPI

[25] = target: T25, KIT(T670I) (Homo sapiens, UniProt P10721, T670I); conditions: at 10 nM; recombinant KIT(T670I)
T25 construct: purchased Carna Biosciences, Inc

[26] = target: T26, MET (Homo sapiens, UniProt P08581); conditions: at 10 nM; recombinant MET
T26 construct: purchased Carna Biosciences, Inc

[27] = target: T27, MNK1 (Homo sapiens, UniProt Q9BUB5); conditions: at 10 nM; recombinant MNK1
T27 construct: purchased Carna Biosciences, Inc

[28] = target: T28, PKD1 (Homo sapiens, UniProt Q15139); conditions: at 10 nM; recombinant PKD1
T28 construct: purchased Carna Biosciences, Inc

[29] = target: T29, FGFR1 (Homo sapiens, UniProt P11362); conditions: at 10 nM; recombinant FGFR1
T29 construct: purchased Carna Biosciences, Inc

[30] = target: T30, EGFR(d746-750/T790M) (Homo sapiens, UniProt P00533, DEL746-750/T790M); conditions: at 10 nM; recombinant EGFR(d746-750/T790M)
T30 construct: purchased Carna Biosciences, Inc
T30 sequence (P00533 with tags, fused parts or gaps DEL746-750/T790M limits assumed): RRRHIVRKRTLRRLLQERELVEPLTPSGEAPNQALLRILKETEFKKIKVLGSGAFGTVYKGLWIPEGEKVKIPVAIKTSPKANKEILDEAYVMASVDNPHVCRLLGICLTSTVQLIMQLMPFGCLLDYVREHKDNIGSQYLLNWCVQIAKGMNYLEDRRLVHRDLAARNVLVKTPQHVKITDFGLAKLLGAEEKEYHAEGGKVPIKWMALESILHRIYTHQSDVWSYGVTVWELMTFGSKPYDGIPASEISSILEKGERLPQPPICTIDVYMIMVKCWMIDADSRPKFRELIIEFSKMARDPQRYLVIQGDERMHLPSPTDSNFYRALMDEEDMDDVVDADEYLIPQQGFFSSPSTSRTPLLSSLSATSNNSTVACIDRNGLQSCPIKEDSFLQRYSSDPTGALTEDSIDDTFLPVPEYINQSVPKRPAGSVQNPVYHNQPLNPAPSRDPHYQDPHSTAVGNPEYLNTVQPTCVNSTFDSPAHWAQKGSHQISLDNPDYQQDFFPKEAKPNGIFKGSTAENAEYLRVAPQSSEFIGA

[31] = target: T31, ITK (Homo sapiens, UniProt Q08881); conditions: at 1 nM; recombinant ITK
T31 construct: purchased Carna Biosciences, Inc

[32] = target: T32, ABL(T315I) (Homo sapiens, UniProt P00519, T315I); conditions: at 1 nM; recombinant ABL(T315I)
T32 construct: purchased Carna Biosciences, Inc

**Q.** What does the source list for `[2H]c1cc(C)c(NC(=O)c2cnc(Nc3cc(N4CCCCC4)nc(C)n3)s2)c(Cl)c1` [Compound I, N-(2-chloro-4-deuterio-6-methyl-phenyl)-2-[[2-methyl-6-(1-piperidyl)pyrimidin-4-yl]amino]thiazole-5-carboxamide]?
**A.** inhibition at 0.01 µM [1]: > 50%; inhibition at 0.01 µM [2]: > 50%; inhibition at 0.01 µM [3]: > 50%; inhibition at 0.01 µM [4]: > 50%; inhibition at 0.01 µM [5]: < 50%; inhibition at 0.01 µM [6]: < 50%; inhibition at 0.01 µM [7]: < 50%; inhibition at 0.01 µM [8]: < 50%; inhibition at 0.01 µM [9]: < 50%; inhibition at 0.01 µM [10]: < 50%; inhibition at 0.01 µM [11]: < 50%; inhibition at 0.01 µM [12]: < 50%; inhibition at 0.01 µM [13]: < 50%; inhibition at 0.01 µM [14]: < 50%; inhibition at 0.01 µM [15]: < 50%; inhibition at 0.01 µM [16]: < 50%; inhibition at 0.01 µM [17]: < 50%; inhibition at 0.01 µM [18]: < 50%; inhibition at 0.01 µM [19]: < 50%; inhibition at 0.01 µM [20]: < 50%; inhibition at 0.01 µM [21]: < 50%; inhibition at 0.01 µM [22]: < 50%; inhibition at 0.01 µM [23]: < 50%; inhibition at 0.01 µM [24]: < 50%; inhibition at 0.01 µM [25]: < 50%; inhibition at 0.01 µM [26]: < 50%; inhibition at 0.01 µM [27]: < 50%; inhibition at 0.01 µM [28]: < 50%; inhibition at 0.01 µM [29]: < 50%; inhibition at 0.01 µM [30]: < 50%

**Q.** For `[2H]c1cc(C)c(NC(=O)c2cnc(Nc3cc(N4CCC(O)CC4)nc(C)n3)s2)c(Cl)c1` [Compound II, N-(2-chloro-4-deuterio-6-methyl-phenyl)-2-[[6-(4-hydroxy-1-piperidyl)-2-methyl-pyrimidin-4-yl]amino]thiazole-5-carboxamide], which inhibition at 0.001 µM [31] is on record?
**A.** The inhibition at 0.001 µM was less than 50%.

**Q.** What about the inhibition at 0.001 µM [32] of the same molecule?
**A.** The inhibition at 0.001 µM was less than 50%.
